How the values were obtained:
Assay in all cases: Test B preemergence/postemergence greenhouse plant response rating 0 to 10
[1] = system: barnyardgrass; type: in vivo, Echinochloa crus-galli; settings: for Plant response rating, Barnyardgrass: 0 to 10 scale
Procedure, shortened: (§1)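 Test chemicals were sprayed onto freshly planted seed and, concurrently, onto young plants between the one and four leaf stage. After a twelve- to sixteen-day greenhouse period, each species was visually compared with untreated controls.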

[2] = system: purple nutsedge; type: in vivo, Cyperus rotundus; settings: for Plant response rating, Nutsedge: 0 to 10 scale
Procedure, shortened: as §1

[3] = system: sorghum; type: in vivo, Sorghum bicolor; settings: for Plant response rating, Sorghum: 0 to 10 scale
Procedure, shortened: as §1

[4] = system: giant foxtail; type: in vivo, Setaria faberii; settings: for Plant response rating, Giant foxtail: 0 to 10 scale
Procedure, shortened: as §1

[5] = system: lambsquarters; type: in vivo, Chenopodium album; settings: for Plant response rating, Lambsquarter: 0 to 10 scale
Procedure, shortened: as §1

[6] = system: blackgrass; type: in vivo, Alopecurus myosuroides; settings: for Plant response rating, Blackgrass: 0 to 10 scale
Procedure, shortened: as §1

[7] = system: sugar beet; type: in vivo, Beta vulgaris; settings: for Plant response rating, Sugar beet: 0 to 10 scale
Procedure, shortened: as §1

[8] = system: bedstraw; type: in vivo, Galium aparine; settings: for Plant response rating, Bedstraw: 0 to 10 scale
Procedure, shortened: as §1

[9] = system: morningglory; type: in vivo, Ipomoea hederacea; settings: for Plant response rating, Morningglory: 0 to 10 scale
Procedure, shortened: as §1

[10] = system: wild buckwheat; type: in vivo, Polygonum convolvulus; settings: for Plant response rating, Wild buckwheat: 0 to 10 scale
Procedure, shortened: as §1

[11] = system: cotton; type: in vivo, Gossypium hirsutum; settings: for Plant response rating, Cotton: 0 to 10 scale
Procedure, shortened: as §1

[12] = system: wheat; type: in vivo, Triticum aestivum; settings: for Plant response rating, Wheat: 0 to 10 scale
Procedure, shortened: as §1

[13] = system: rape; type: in vivo, Brassica napus; settings: for Plant response rating, Rape: 0 to 10 scale
Procedure, shortened: as §1

[14] = system: barley; type: in vivo, Hordeum vulgare; settings: for Plant response rating, Barley: 0 to 10 scale
Procedure, shortened: as §1

[15] = system: velvetleaf; type: in vivo, Abutilon theophrasti; settings: for Plant response rating, Velvetleaf: 0 to 10 scale
Procedure, shortened: as §1

[16] = system: corn; type: in vivo, Zea mays; settings: for Plant response rating, Corn: 0 to 10 scale
Procedure, shortened: as §1

[17] = system: crabgrass; type: in vivo, Digitaria spp.; settings: for Plant response rating, Crabgrass: 0 to 10 scale
Procedure, shortened: as §1

[18] = system: rice; type: in vivo, Oryza sativa; settings: for Plant response rating, Rice: 0 to 10 scale
Procedure, shortened: as §1

[19] = system: wild oat; type: in vivo, Avena fatua; settings: for Plant response rating, Wild oat: 0 to 10 scale
Procedure, shortened: as §1

[20] = system: chickweed; type: in vivo, Stellaria media; settings: for Plant response rating, Chickweed: 0 to 10 scale
Procedure, shortened: as §1

[21] = system: cheatgrass; type: in vivo, Bromus secalinus; settings: for Plant response rating, Cheatgrass: POSTEMERGENCE, 0 to 10 scale
Procedure, shortened: as §1

[22] = system: cocklebur; type: in vivo, Xanthium pensylvanicum; settings: for Plant response rating, Cocklebur: 0 to 10 scale
Procedure, shortened: as §1

[23] = system: soybean; type: in vivo, Glycine max; settings: for Plant response rating, Soybean: 0 to 10 scale
Procedure, shortened: as §1

Structure (SMILES): Oc1cc(-c2nn3c(c2Cl)CCCC3)c(Cl)cc1Cl [Compound 68]
- Plant response rating, Barnyardgrass ([1]; POSTEMERGENCE, Rate 50 g/ha): 2
- Plant response rating, Barnyardgrass ([1]; PREEMERGENCE, Rate 50 g/ha): 0
- Plant response rating (0 to 10 scale), Barnyardgrass ([1]; PREEMERGENCE, Rate 200 g/ha): 0
- Plant response rating, Barnyardgrass ([1]; Rate 200 g/ha, POSTEMERGENCE): 3
- Plant response rating, Nutsedge ([2]; POSTEMERGENCE, Rate 50 g/ha): 2
- Plant response rating, Nutsedge ([2]; PREEMERGENCE, Rate 50 g/ha): 0
- Plant response rating (0 to 10 scale), Nutsedge ([2]; PREEMERGENCE, Rate 200 g/ha): 0
- Plant response rating, Nutsedge ([2]; Rate 200 g/ha, POSTEMERGENCE): 3
- Plant response rating, Sorghum ([3]; POSTEMERGENCE, Rate 50 g/ha): 3
- Plant response rating, Sorghum ([3]; PREEMERGENCE, Rate 50 g/ha): 0
- Plant response rating (0 to 10 scale), Sorghum ([3]; PREEMERGENCE, Rate 200 g/ha): 0
- Plant response rating, Sorghum ([3]; Rate 200 g/ha, POSTEMERGENCE): 4
- Plant response rating, Giant foxtail ([4]; POSTEMERGENCE, Rate 50 g/ha): 4
- Plant response rating, Giant foxtail ([4]; PREEMERGENCE, Rate 50 g/ha): 0
- Plant response rating (0 to 10 scale), Giant foxtail ([4]; PREEMERGENCE, Rate 200 g/ha): 0
- Plant response rating, Giant foxtail ([4]; Rate 200 g/ha, POSTEMERGENCE): 4
- Plant response rating, Lambsquarter ([5]; POSTEMERGENCE, Rate 50 g/ha): 10
- Plant response rating, Lambsquarter ([5]; PREEMERGENCE, Rate 50 g/ha): 6
- Plant response rating (0 to 10 scale), Lambsquarter ([5]; PREEMERGENCE, Rate 200 g/ha): 0
- Plant response rating, Lambsquarter ([5]; Rate 200 g/ha, POSTEMERGENCE): 10
- Plant response rating, Blackgrass ([6]; POSTEMERGENCE, Rate 50 g/ha): 2
- Plant response rating, Blackgrass ([6]; PREEMERGENCE, Rate 50 g/ha): 2
- Plant response rating (0 to 10 scale), Blackgrass ([6]; PREEMERGENCE, Rate 200 g/ha): 8
- Plant response rating, Blackgrass ([6]; Rate 200 g/ha, POSTEMERGENCE): 3
- Plant response rating, Sugar beet ([7]; POSTEMERGENCE, Rate 50 g/ha): 9
- Plant response rating, Sugar beet ([7]; PREEMERGENCE, Rate 50 g/ha): 0
- Plant response rating (0 to 10 scale), Sugar beet ([7]; PREEMERGENCE, Rate 200 g/ha): 9
- Plant response rating, Sugar beet ([7]; Rate 200 g/ha, POSTEMERGENCE): 10
- Plant response rating, Bedstraw ([8]; POSTEMERGENCE, Rate 50 g/ha): 7
- Plant response rating, Bedstraw ([8]; PREEMERGENCE, Rate 50 g/ha): 0
- Plant response rating (0 to 10 scale), Bedstraw ([8]; PREEMERGENCE, Rate 200 g/ha): 2
- Plant response rating, Bedstraw ([8]; Rate 200 g/ha, POSTEMERGENCE): 9
- Plant response rating, Morningglory ([9]; POSTEMERGENCE, Rate 50 g/ha): 8
- Plant response rating, Morningglory ([9]; PREEMERGENCE, Rate 50 g/ha): 0
- Plant response rating (0 to 10 scale), Morningglory ([9]; PREEMERGENCE, Rate 200 g/ha): 0
- Plant response rating, Morningglory ([9]; Rate 200 g/ha, POSTEMERGENCE): 8
- Plant response rating, Wild buckwheat ([10]; POSTEMERGENCE, Rate 50 g/ha): 10
- Plant response rating, Wild buckwheat ([10]; PREEMERGENCE, Rate 50 g/ha): 0
- Plant response rating (0 to 10 scale), Wild buckwheat ([10]; PREEMERGENCE, Rate 200 g/ha): 4
- Plant response rating, Wild buckwheat ([10]; Rate 200 g/ha, POSTEMERGENCE): 10
- Plant response rating, Cotton ([11]; POSTEMERGENCE, Rate 50 g/ha): 10
- Plant response rating, Cotton ([11]; PREEMERGENCE, Rate 50 g/ha): 0
- Plant response rating (0 to 10 scale), Cotton ([11]; PREEMERGENCE, Rate 200 g/ha): 0
- Plant response rating, Cotton ([11]; Rate 200 g/ha, POSTEMERGENCE): 10
- Plant response rating, Wheat ([12]; POSTEMERGENCE, Rate 50 g/ha): 3
- Plant response rating, Wheat ([12]; PREEMERGENCE, Rate 50 g/ha): 0
- Plant response rating (0 to 10 scale), Wheat ([12]; PREEMERGENCE, Rate 200 g/ha): 3
- Plant response rating, Wheat ([12]; Rate 200 g/ha, POSTEMERGENCE): 4
- Plant response rating, Rape ([13]; POSTEMERGENCE, Rate 50 g/ha): 3
- Plant response rating, Rape ([13]; PREEMERGENCE, Rate 50 g/ha): 0
- Plant response rating (0 to 10 scale), Rape ([13]; PREEMERGENCE, Rate 200 g/ha): 0
- Plant response rating, Rape ([13]; Rate 200 g/ha, POSTEMERGENCE): 5
- Plant response rating, Barley ([14]; POSTEMERGENCE, Rate 50 g/ha): 3
- Plant response rating, Barley ([14]; PREEMERGENCE, Rate 50 g/ha): 0
- Plant response rating (0 to 10 scale), Barley ([14]; PREEMERGENCE, Rate 200 g/ha): 0
- Plant response rating, Barley ([14]; Rate 200 g/ha, POSTEMERGENCE): 3
- Plant response rating, Velvetleaf ([15]; POSTEMERGENCE, Rate 50 g/ha): 8
- Plant response rating, Velvetleaf ([15]; PREEMERGENCE, Rate 50 g/ha): 0
- Plant response rating (0 to 10 scale), Velvetleaf ([15]; PREEMERGENCE, Rate 200 g/ha): 9
- Plant response rating, Velvetleaf ([15]; Rate 200 g/ha, POSTEMERGENCE): 10
- Plant response rating, Corn ([16]; POSTEMERGENCE, Rate 50 g/ha): 3
- Plant response rating, Corn ([16]; PREEMERGENCE, Rate 50 g/ha): 0
- Plant response rating (0 to 10 scale), Corn ([16]; PREEMERGENCE, Rate 200 g/ha): 0
- Plant response rating, Corn ([16]; Rate 200 g/ha, POSTEMERGENCE): 4
- Plant response rating, Crabgrass ([17]; POSTEMERGENCE, Rate 50 g/ha): 3
- Plant response rating, Crabgrass ([17]; PREEMERGENCE, Rate 50 g/ha): 0
- Plant response rating (0 to 10 scale), Crabgrass ([17]; PREEMERGENCE, Rate 200 g/ha): 2
- Plant response rating, Crabgrass ([17]; Rate 200 g/ha, POSTEMERGENCE): 4
- Plant response rating, Rice ([18]; POSTEMERGENCE, Rate 50 g/ha): 5
- Plant response rating, Rice ([18]; PREEMERGENCE, Rate 50 g/ha): 0
- Plant response rating (0 to 10 scale), Rice ([18]; PREEMERGENCE, Rate 200 g/ha): 0
- Plant response rating, Rice ([18]; Rate 200 g/ha, POSTEMERGENCE): 5
- Plant response rating, Wild oat ([19]; POSTEMERGENCE, Rate 50 g/ha): 2
- Plant response rating, Wild oat ([19]; PREEMERGENCE, Rate 50 g/ha): 0
- Plant response rating (0 to 10 scale), Wild oat ([19]; PREEMERGENCE, Rate 200 g/ha): 0
- Plant response rating, Wild oat ([19]; Rate 200 g/ha, POSTEMERGENCE): 3
- Plant response rating, Chickweed ([20]; POSTEMERGENCE, Rate 50 g/ha): 0
- Plant response rating, Chickweed ([20]; PREEMERGENCE, Rate 50 g/ha): 2
- Plant response rating (0 to 10 scale), Chickweed ([20]; PREEMERGENCE, Rate 200 g/ha): 2
- Plant response rating, Chickweed ([20]; Rate 200 g/ha, POSTEMERGENCE): 1
- Plant response rating, Cheatgrass ([21]; Rate 50 g/ha): 2
- Plant response rating (0 to 10 scale), Cheatgrass ([21]; PREEMERGENCE, Rate 200 g/ha): 3
- Plant response rating, Cheatgrass ([21]; Rate 200 g/ha): 3
- Plant response rating, Cocklebur ([22]; POSTEMERGENCE, Rate 50 g/ha): 6
- Plant response rating, Cocklebur ([22]; PREEMERGENCE, Rate 50 g/ha): 0
- Plant response rating (0 to 10 scale), Cocklebur ([22]; PREEMERGENCE, Rate 200 g/ha): 0
- Plant response rating, Cocklebur ([22]; Rate 200 g/ha, POSTEMERGENCE): 7
- Plant response rating, Soybean ([23]; POSTEMERGENCE, Rate 50 g/ha): 4
- Plant response rating, Soybean ([23]; PREEMERGENCE, Rate 50 g/ha): 0
- Plant response rating (0 to 10 scale), Soybean ([23]; PREEMERGENCE, Rate 200 g/ha): 0
- Plant response rating, Soybean ([23]; Rate 200 g/ha, POSTEMERGENCE): 6

From US6358885B1, “Substituted phenylheterocyclic herbicides” (Mississippi State University, priority 1992, dated 2002)
